Data as given in patent US9580444B2, “Polycyclic pyrazolinone derivative and herbicide comprising same as effective component thereof” (priority 2013, dated 2017).

Columns and labels:
Test in all cases: Test Example-1: herbicidal effect by a treatment before weeds are generated under submerged conditions
Format in all cases: in vivo
Settings in all cases: 500 g a.i/ha, pre-emergence treatment, about 15 days after treatment, score 0-5
[1] = system: Cyperus difformis (smallflower umbrella plant)
Method: (§1) Using the formulation prepared according to the methods described above, the herbicidal effect of the bicyclic pyrazolinone derivative of the invention according to the methods shown in Test Examples below was examined. The herbicidal effect with respect to the test weeds or the phytotoxicity with respect to the test crops was examined according to the following criteria, and evaluated in six stage scores of 0 to 5.
(§2) A plastic cup of 30 cm^2 was filled with paddy soil, soil puddling was performed, seeds of Echinochloa oryzicola (barnyard grass), Cyperus difformis (smallflower umbrella plant), Monochoria vaginalis (monochoria), Scirpus juncoides (bulrush), and Eleocharis acicularis (needle spikerush), and Lindernia procumbens (common false pimpernel), Rotala indica (indian toothcup), Elatine triandra (waterwort) as other annual broad leaf weeds were seeded therein, and kept in a submerged state. A wettable powder or an emulsifiable concentrate of the compound of the present invention prepared according to Formulation Example was diluted on the weed seeding day, and a submersing treatment was performed so as to be a predetermined dosage. The herbicidal effect with respect to the test weeds about 15 days after the treatment was evaluated according to the evaluation criteria in six stages of 0 to 5 described above.

[2] = system: other annual broad leaf weeds (Lindernia procumbens, Rotala indica, Elatine triandra)
Method: as §1, §2

[3] = system: Scirpus juncoides (bulrush)
Method: as §1, §2

[4] = system: Echinochloa oryzicola (barnyard grass)
Method: as §1, §2

[5] = system: Eleocharis acicularis (needle spikerush)
Method: as §1, §2

[6] = system: Monochoria vaginalis (monochoria)
Method: as §1, §2

SMILES	Herbicidal effect Cyperus difformis [1]	Herbicidal effect Broadleaf weed [2]	Herbicidal effect Scirpus juncoides [3]	Herbicidal effect Echinochloa oryzicola [4]	Herbicidal effect Eleocharis acicularis [5]	Herbicidal effect Monochoria vaginalis [6]
CCOC(=CC(=O)OC(C)C)COc1cc(-c2c(Cl)n3n(c2=O)CCCC3)c(F)cc1Cl [Compound 2-26]	5 (Herbicidal effect/phytotoxicity was 90% or greater)	5 (Herbicidal effect/phytotoxicity was 90% or greater)	5 (Herbicidal effect/phytotoxicity was 90% or greater)	5 (Herbicidal effect/phytotoxicity was 90% or greater)	5 (Herbicidal effect/phytotoxicity was 90% or greater)	5 (Herbicidal effect/phytotoxicity was 90% or greater)
C#CCOc1cc(-c2c(F)n3n(c2=O)CCCCC3)c(Cl)cc1Cl [Example 1-361]	5 (Herbicidal effect/phytotoxicity was 90% or greater)	5 (Herbicidal effect/phytotoxicity was 90% or greater)	5 (Herbicidal effect/phytotoxicity was 90% or greater)	5 (Herbicidal effect/phytotoxicity was 90% or greater)	5 (Herbicidal effect/phytotoxicity was 90% or greater)	5 (Herbicidal effect/phytotoxicity was 90% or greater)
O=c1c(-c2cc(Oc3cccnc3[N+](=O)[O-])c(Cl)cc2F)c(Cl)n2n1CCCC2 [Example 1-386]	5 (Herbicidal effect/phytotoxicity was 90% or greater)	5 (Herbicidal effect/phytotoxicity was 90% or greater)	5 (Herbicidal effect/phytotoxicity was 90% or greater)	5 (Herbicidal effect/phytotoxicity was 90% or greater)	5 (Herbicidal effect/phytotoxicity was 90% or greater)	5 (Herbicidal effect/phytotoxicity was 90% or greater)
COc1cc(F)ccc1Oc1cc(-c2c(Cl)n3n(c2=O)CCCC3)c(F)cc1Cl [Compound 3-33]	5 (Herbicidal effect/phytotoxicity was 90% or greater)	5 (Herbicidal effect/phytotoxicity was 90% or greater)	5 (Herbicidal effect/phytotoxicity was 90% or greater)	5 (Herbicidal effect/phytotoxicity was 90% or greater)	5 (Herbicidal effect/phytotoxicity was 90% or greater)	5 (Herbicidal effect/phytotoxicity was 90% or greater)
C=C(C)COc1cc(-c2c(Cl)n3n(c2=O)CCCC3)c(F)cc1F [Example 1-106]	5 (Herbicidal effect/phytotoxicity was 90% or greater)	5 (Herbicidal effect/phytotoxicity was 90% or greater)	5 (Herbicidal effect/phytotoxicity was 90% or greater)	5 (Herbicidal effect/phytotoxicity was 90% or greater)	5 (Herbicidal effect/phytotoxicity was 90% or greater)	5 (Herbicidal effect/phytotoxicity was 90% or greater)
CCOC(=CC(=O)OC)COc1cc(-c2c(Cl)n3n(c2=O)CCCC3)c(F)cc1Cl (mixture of isomers) [Compound 2-12]	5 (Herbicidal effect/phytotoxicity was 90% or greater)	5 (Herbicidal effect/phytotoxicity was 90% or greater)	5 (Herbicidal effect/phytotoxicity was 90% or greater)	5 (Herbicidal effect/phytotoxicity was 90% or greater)	5 (Herbicidal effect/phytotoxicity was 90% or greater)	5 (Herbicidal effect/phytotoxicity was 90% or greater)
COc1cc(Cl)ccc1Oc1cc(-c2c(Cl)n3n(c2=O)CCCC3)c(F)cc1Cl [Compound 3-37]	5 (Herbicidal effect/phytotoxicity was 90% or greater)	5 (Herbicidal effect/phytotoxicity was 90% or greater)	5 (Herbicidal effect/phytotoxicity was 90% or greater)	5 (Herbicidal effect/phytotoxicity was 90% or greater)	5 (Herbicidal effect/phytotoxicity was 90% or greater)	5 (Herbicidal effect/phytotoxicity was 90% or greater)
COc1cc(-c2c(F)n3n(c2=O)CCCC3)c(Cl)cc1Cl [Example 1-356]	5 (Herbicidal effect/phytotoxicity was 90% or greater)	5 (Herbicidal effect/phytotoxicity was 90% or greater)	5 (Herbicidal effect/phytotoxicity was 90% or greater)	5 (Herbicidal effect/phytotoxicity was 90% or greater)	5 (Herbicidal effect/phytotoxicity was 90% or greater)	5 (Herbicidal effect/phytotoxicity was 90% or greater)
C=CCOC(=O)C=C(COc1ccccc1Oc1cc(-c2c(Cl)n3n(c2=O)CCCC3)c(F)cc1Cl)OCC [Compound 3-25]	5 (Herbicidal effect/phytotoxicity was 90% or greater)	5 (Herbicidal effect/phytotoxicity was 90% or greater)	5 (Herbicidal effect/phytotoxicity was 90% or greater)	5 (Herbicidal effect/phytotoxicity was 90% or greater)	5 (Herbicidal effect/phytotoxicity was 90% or greater)	5 (Herbicidal effect/phytotoxicity was 90% or greater)
COC(=O)C(Cl)Cc1cc(-c2c(Cl)n3n(c2=O)CCCC3)c(F)cc1Cl (stereo not drawn) [Example 1-257]	5 (Herbicidal effect/phytotoxicity was 90% or greater)	5 (Herbicidal effect/phytotoxicity was 90% or greater)	5 (Herbicidal effect/phytotoxicity was 90% or greater)	5 (Herbicidal effect/phytotoxicity was 90% or greater)	5 (Herbicidal effect/phytotoxicity was 90% or greater)	5 (Herbicidal effect/phytotoxicity was 90% or greater)
COc1cc(-c2c(Cl)n3n(c2=O)CCCCC3)c(Cl)cc1Cl [Example 1-293]	5 (Herbicidal effect/phytotoxicity was 90% or greater)	5 (Herbicidal effect/phytotoxicity was 90% or greater)	5 (Herbicidal effect/phytotoxicity was 90% or greater)	5 (Herbicidal effect/phytotoxicity was 90% or greater)	5 (Herbicidal effect/phytotoxicity was 90% or greater)	5 (Herbicidal effect/phytotoxicity was 90% or greater)
O=c1c(-c2cc(OC3C=CCCC3)c(F)cc2F)c(Cl)n2n1CCCC2 (stereo not drawn) [Example 1-112]	5 (Herbicidal effect/phytotoxicity was 90% or greater)	5 (Herbicidal effect/phytotoxicity was 90% or greater)	5 (Herbicidal effect/phytotoxicity was 90% or greater)	5 (Herbicidal effect/phytotoxicity was 90% or greater)	5 (Herbicidal effect/phytotoxicity was 90% or greater)	5 (Herbicidal effect/phytotoxicity was 90% or greater)
C#CC(C)Oc1ccccc1Oc1cc(-c2c(Cl)n3n(c2=O)CCCC3)c(F)cc1Cl (stereo not drawn) [Compound 3-31]	5 (Herbicidal effect/phytotoxicity was 90% or greater)	5 (Herbicidal effect/phytotoxicity was 90% or greater)	5 (Herbicidal effect/phytotoxicity was 90% or greater)	5 (Herbicidal effect/phytotoxicity was 90% or greater)	5 (Herbicidal effect/phytotoxicity was 90% or greater)	5 (Herbicidal effect/phytotoxicity was 90% or greater)
